{"source": "patent US11612652B2", "about": "“Lipids as synthetic vectors to enhance antigen processing and presentation ex-vivo in dendritic cell therapy” (PDS Biotechnology Corporation, priority 2015, dated 2023)", "key": {"TC1 epithelial cells": {"system": "TC1 epithelial cells", "assay": "DQ-OVA uptake and processing by epithelial cell line", "format": "cell-based, mouse", "conditions": "identical conditions as the BMDC", "method": "This uptake and processing was inhibited at 4° C. confirming that active cytoskeletal rearrangements are required for this type of uptake. […] The effect of R-DOTAP was concentration dependent with 50 uM showing the greatest effect. To determine if the R-DOTAP enhancement of protein uptake is cell dependent, a mouse epithelial cell line was incubated with DQ-OVA under identical conditions as the BMDC. […] Further, they indicate that this enhancement is selective for dendritic cells and not other, non-antigen presenting cell types."}, "THP-1 cells": {"system": "THP-1 cells", "assay": "DQ-OVA uptake in human monocyte cell line, confocal microscopy and flow cytometry", "format": "cell-based", "conditions": "DQ-OVA 10 μg/ml, R-DOTAP 25 μg/ml, 1 h at 37° C.", "method": "To determine the effect of cationic lipids on human cells, a human monocyte cell line, THP-1 was used to assess DQ-OVA uptake ex-vivo. THP-1 is representative of human blood derived monocyte cells, the same cells that are used to produce DC from patients in ex vivo DC therapy approaches. THP-1 cells were incubated with DQ-OVA (10 μg/ml) in the presence (A, B) or absence (C, D) of R-DOTAP (25 μg/ml) for 1 h at 37° C. The same cell was imaged using a laser scanning confocal microscope and quantitated by measuring green versus red fluorescence by flow cytometry. […] Another striking observation from FIGS. 6A and B, is the accumulation of processed OVA in endocytic vesicles. It is well known that proteins in endocytic vesicles are efficiently incorporated into MHC class II molecules for stimulating CD4 T cells or shuttled into the cross-presentation pathway for presentation on MHC class I to CD8 T cells. Thus, cationic lipids facilitate protein uptake in a manner which maximally optimizes presentation of antigen onto both MHC class I and class II molecules, resulting in maximal stimulation of CD8 and CD4 T cells respectively."}, "[1]": {"system": "HPV16-specific CD8+ T-cells", "assay": "IFN-gamma ELISPOT of splenocytes after vaccination with KF18 HPV peptide formulations", "format": "in vivo, C57 black mice", "conditions": "vaccinated Day 0 and Day 7, sacrificed Day 14", "method": "C57 black mice were vaccinated with various formulations: […]\nGroup 1: KF18 HPV peptide ([…]) (SEQ ID NO: 4)\nGroup 2: KF18 HPV peptide+R-DOTAP liposomes\nGroup 3: KF18 HPV peptide+S-DOTAP liposomes\nGroup 4: KF18 peptide+MPL/Alum adjuvant\n5 mice per group were injected with the various formulations. The mice were vaccinated on Day 0 and Day 7 and sacrificed on Day 14. The splenocytes were removed and ELISPOT studies performed. The splenocytes were stimulated with the peptide […] (RF9) (SEQ ID NO: 5), the HPV16 CD8+ T-cell epitope peptide recognized by the C57 mice. […] An additional example of this effect is observed with the cationic lipid DDA. […] However, it has been reported that in order to induce strong antigen-specific T-cell responses that DDA is used in combination with strong adjuvants (Brandt L. et al, ESAT-6 Subunit Vaccination against Mycobacterium tuberculosis, Infect Immun. 2000 February; 68(2): 791-795)."}, "TC-1 tumors": {"system": "TC-1 tumors", "assay": "Established TC-1 tumor model: tumor microenvironment, tumor volume, ELISPOT", "format": "in vivo, C57 mice", "conditions": "Day 19 flow cytometry", "method": "C57 mice were divided into the following groups of 8 mice per group: R-DOTAP+HPV16 E7 peptide KF18 ([…]) (SEQ ID NO: 4) , GM-CSF+HPV16 E7 peptide KF18, R-DOTAP, GM-C SF, HPV16 E7 peptide KF18, untreated. 1×10^5 TC-1 tumor cells were injected into the flank of the mice on day 0. The various formulations were administered on Days 12 and 19 after tumor implantation. On day 19 4-5 mice per group were sacrificed and a number of evaluations performed to evaluate the immunology of the tumor microenvironment.\nRF9 specific dextramer staining and flow cytometry were utilized to quantify the number of HPV-specific CD8+ T-cells that had infiltrated into the tumor micro-environment. The study quantified the number of CD8+ T cells specific to the mouse epitope RF9. These CD8+ T cells were measured as a percentage of all immune cells (CD45, CD3 and CD8) present in the tumor. Antigen specific T cells infiltrating into the tumor were measured using RF9 specific dextramers by flow cytometry. […] Data represents mean±SEM of 4-5 mice in each group.\nOn Day 19 flow cytometry was used to study the immuno-suppressive tumor microenvironment, specifically the regulatory T cell population. T regulatory cells (CD45+CD3+CD4+CD25+Foxp3+) cells infiltrated into tumors on day 14 and day 19.\nOf critical importance to the clinical efficacy of any immunotherapy is the ratio of immune suppressive cells to tumor targeting CD8+ T cells within the tumor microenvironment. A lower ratio of immune suppressor cells to CD8+ T cells promotes improved prognosis for anti-tumor benefit. […] Cationic lipids appear to promote the preferential expansion of the right phenotype of effector T-cells in preference to Tregs.\nThe various formulations were evaluated for their impact on the established TC-1 tumors in the same study. […] Tumor volumes were measured using calipers. The naïve mice group are tumor bearing mice that remained untreated. The HPV16 E7 peptide used in the vaccine is KF18. […]\nIn this study, IFN-γ ELISPOT studies were also performed to quantify and understand the “quality” of tumor-specific T-cell generated. […]"}, "popliteal lymph nodes": {"system": "popliteal lymph nodes", "assay": "Influx of T-cells and total lymphocytes into draining lymph nodes after foot pad injection", "format": "in vivo, mice", "method": "12 mM R-DOTAP or sucrose as control were injected into the right and eft foot pad respectively of mice and the influx of T-cells and total lymphocytes into the draining lymph nodes were quantified by flow cytometry. In this experiment, 15 hours after vaccination the popliteal lymph nodes were removed and analysis performed. […] Five mice were used per study."}, "popliteal LN": {"system": "popliteal LN", "assay": "Homing of CFSE labeled adoptively transferred spleen cells with or without pertussis toxin", "format": "in vivo, B6 mice", "conditions": "16 h", "source_text": "The primary objective of the current experiment was to utilize 5 mice to perform the study described in Example 7 and to visualize the homing of CFSE labeled adoptively transferred cells. The study included a population of cells that had been treated in vitro with pertussis toxin to inactivate chemokine receptors. Pertussis toxin and untreated cells were labeled with two different concentrations of CFSE so that they could be distinguished by flow cytometry. The lymphocytes should be induced to home to lymph nodes.\nSpleen cells were prepared from a single B6 mouse and divided in half. Half of the cells were treated with Pertussis toxin 100 ng/ml for 1 hour at 37° C. and washed. The two cell populations were then labeled with CFSE at two different concentrations so they could be distinguished by flow cytometry, and mixed together. The mix (10^7 cells) was injected i.v. into the tail vein of 5 B6 mice. The mice were then anesthetized and injected in the footpad with either sucrose (right footpad) or R-DOTAP (left footpad, 50 μl, 600 nmoles).\nAfter 16 h, the mice were sacrificed and the popliteal LN and spleens harvested. The total cells recovered from left and right nodes from each mouse were counted."}}, "data": [{"compound": "CCCCCCCC/C=C\\CCCCCCCC(=O)OCC(C[N+](C)(C)C)OC(=O)CCCCCCC/C=C\\CCCCCCCC", "note": "(centres unmarked) [R-DOTAP, 1,2-dioleoyl-3-trimethylammonium propane]", "values": [{"measurement": "DQ-OVA uptake and processing in TC1 epithelial cells", "setting": "TC1 epithelial cells", "result": "only observed in DC and not in TC1 epithelial cells"}, {"measurement": "DQ-OVA uptake in THP-1 cells", "setting": "THP-1 cells", "result": "dramatically enhanced the uptake of DQ-OVA in THP-1 cells"}, {"measurement": "HPV-specific CD8+ T-cell response (ELISPOT, RF9 stimulation)", "setting": "[1]", "result": "effective in inducing strong HPV-specific CD8+ T-cell responses"}, {"measurement": "ability to reduce the population of Tregs in tumors", "setting": "TC-1 tumors", "result": "statistical significance was not achieved"}, {"measurement": "infiltration of T-cells into the draining lymph node", "setting": "popliteal lymph nodes; 12 mM R-DOTAP in foot pad, 15 hours after vaccination, versus sucrose", "result": "induced significant infiltration of T-cells into the lymph node"}, {"measurement": "lymphocyte infiltration into the lymph nodes over time", "setting": "popliteal lymph nodes; 5 hours, 16 hours, 3 days and 4 days", "result": "lymphocyte infiltration into the lymph nodes was seen to increase over the 4-day period"}, {"measurement": "infiltration of transferred CFSE labeled lymphocytes into lymph node", "setting": "popliteal LN; R-DOTAP footpad 50 μl, 600 nmoles, untreated cells", "result": "transferred CFSE labeled lymphocytes also infiltrated the lymph node upon R-DOTAP vaccination"}, {"measurement": "infiltration of pertussis toxin treated CFSE labeled cells into lymph node", "setting": "popliteal LN; cells treated with Pertussis toxin 100 ng/ml", "result": "this did not occur with the pertussis treated cells"}]}]}
